#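 Cultured in 96-well plates, cells were exposed to test compound for 48 hours across five concentrations. The concentration for 50% growth inhibition is given as GI50. TGI denotes the concentration required for complete inhibition of growth.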
# Tested on: ACHN renal
# Test: NCI-60 cell line screen, 48 h
SMILES,TGI [µM],GI50 [µM]
COc1cc(OC)c(C2c3cc4c(cc3OC(N3CCOCC3)C2C)OCO4)c(OC)c1 (stereo unspecified),82.4,
CC1=C(C(=O)NNC(=O)CC#N)CC(C(=O)NNC(=O)CC#N)=C(C)N1,> 100,
COC(=O)c1cc(C(=O)OC)cc(-c2ccc3c(c2)-c2nc4c(c(-c5ccc(OC)cc5)c2CC3)CCc2ccc(-c3cc(C(=O)OC)cc(C(=O)OC)c3)cc2-4)c1,> 100,
CCCCCCNc1nc(NCCCCCC)c2[nH]c(NCCCCCC)nc2n1,37.8,15
COC(=O)c1cc2c3c(cc(NCCN)c2[nH]1)N(C(=O)c1cc2cc(OC)c(OC)c(OC)c2[nH]1)CC3CCl (stereo unspecified),0.251,
CN(C)c1nc(=NCc2ccccn2)ss1,> 10,

# Tested on: M14 melanoma
# Test: NCI-60 cell line screen, 48 h
SMILES,TGI [µM],GI50 [µM]
COc1cc(OC)c(C2c3cc4c(cc3OC(N3CCOCC3)C2C)OCO4)c(OC)c1 (stereo unspecified),> 100,
CCN(CC)CCCNc1ccc([N+](=O)[O-])c2nc3ccc(OC)cc3c(NCCCN(CC)CC)c12,> 10,
CC1=C(C(=O)NNC(=O)CC#N)CC(C(=O)NNC(=O)CC#N)=C(C)N1,> 100,
COC(=O)c1cc(C(=O)OC)cc(-c2ccc3c(c2)-c2nc4c(c(-c5ccc(OC)cc5)c2CC3)CCc2ccc(-c3cc(C(=O)OC)cc(C(=O)OC)c3)cc2-4)c1,> 100,
CCCCCCNc1nc(NCCCCCC)c2[nH]c(NCCCCCC)nc2n1,27.9,14.1
COC(=O)c1cc2c3c(cc(NCCN)c2[nH]1)N(C(=O)c1cc2cc(OC)c(OC)c(OC)c2[nH]1)CC3CCl (stereo unspecified),0.253,
CN(C)c1nc(=NCc2ccccn2)ss1,> 10,

# Tested on: SF-295 CNS
# Test: NCI-60 cell line screen, 48 h
SMILES,TGI [µM],GI50 [µM]
COc1cc(OC)c(C2c3cc4c(cc3OC(N3CCOCC3)C2C)OCO4)c(OC)c1 (stereo unspecified),> 100,
CC1=C(C(=O)NNC(=O)CC#N)CC(C(=O)NNC(=O)CC#N)=C(C)N1,> 100,
COC(=O)c1cc(C(=O)OC)cc(-c2ccc3c(c2)-c2nc4c(c(-c5ccc(OC)cc5)c2CC3)CCc2ccc(-c3cc(C(=O)OC)cc(C(=O)OC)c3)cc2-4)c1,> 100,
CCCCCCNc1nc(NCCCCCC)c2[nH]c(NCCCCCC)nc2n1,31.3,12.8
COC(=O)c1cc2c3c(cc(NCCN)c2[nH]1)N(C(=O)c1cc2cc(OC)c(OC)c(OC)c2[nH]1)CC3CCl (stereo unspecified),0.858,
CN(C)c1nc(=NCc2ccccn2)ss1,> 10,

# Tested on: MDA-MB-231 breast
# Test: NCI-60 cell line screen, 48 h
SMILES,TGI [µM],GI50 [µM]
CCN(CC)CCCNc1ccc([N+](=O)[O-])c2nc3ccc(OC)cc3c(NCCCN(CC)CC)c12,2.84,
CC1=C(C(=O)NNC(=O)CC#N)CC(C(=O)NNC(=O)CC#N)=C(C)N1,> 100,
COC(=O)c1cc(C(=O)OC)cc(-c2ccc3c(c2)-c2nc4c(c(-c5ccc(OC)cc5)c2CC3)CCc2ccc(-c3cc(C(=O)OC)cc(C(=O)OC)c3)cc2-4)c1,> 100,
CCCCCCNc1nc(NCCCCCC)c2[nH]c(NCCCCCC)nc2n1,19.3,5.09
COC(=O)c1cc2c3c(cc(NCCN)c2[nH]1)N(C(=O)c1cc2cc(OC)c(OC)c(OC)c2[nH]1)CC3CCl (stereo unspecified),0.467,
CN(C)c1nc(=NCc2ccccn2)ss1,> 10,

# Tested on: HOP-92 NSCLC
# Test: NCI-60 cell line screen, 48 h
SMILES,TGI [µM],GI50 [µM]
CC1=C(C(=O)NNC(=O)CC#N)CC(C(=O)NNC(=O)CC#N)=C(C)N1,> 100,
COC(=O)c1cc(C(=O)OC)cc(-c2ccc3c(c2)-c2nc4c(c(-c5ccc(OC)cc5)c2CC3)CCc2ccc(-c3cc(C(=O)OC)cc(C(=O)OC)c3)cc2-4)c1,> 100,
CCCCCCNc1nc(NCCCCCC)c2[nH]c(NCCCCCC)nc2n1,16.9,5.43
CN(C)c1nc(=NCc2ccccn2)ss1,> 10,

# Tested on: 786-0 renal
# Test: NCI-60 cell line screen, 48 h
SMILES,TGI [µM],GI50 [µM]
COc1cc(OC)c(C2c3cc4c(cc3OC(N3CCOCC3)C2C)OCO4)c(OC)c1 (stereo unspecified),> 100,
CCN(CC)CCCNc1ccc([N+](=O)[O-])c2nc3ccc(OC)cc3c(NCCCN(CC)CC)c12,2.76,
CC1=C(C(=O)NNC(=O)CC#N)CC(C(=O)NNC(=O)CC#N)=C(C)N1,> 100,
COC(=O)c1cc(C(=O)OC)cc(-c2ccc3c(c2)-c2nc4c(c(-c5ccc(OC)cc5)c2CC3)CCc2ccc(-c3cc(C(=O)OC)cc(C(=O)OC)c3)cc2-4)c1,> 100,
CCCCCCNc1nc(NCCCCCC)c2[nH]c(NCCCCCC)nc2n1,27.6,14.5
COC(=O)c1cc2c3c(cc(NCCN)c2[nH]1)N(C(=O)c1cc2cc(OC)c(OC)c(OC)c2[nH]1)CC3CCl (stereo unspecified),0.283,
CN(C)c1nc(=NCc2ccccn2)ss1,> 5.57,

# Tested on: LOX IMVI melanoma
# Test: NCI-60 cell line screen, 48 h
SMILES,TGI [µM],GI50 [µM]
COc1cc(OC)c(C2c3cc4c(cc3OC(N3CCOCC3)C2C)OCO4)c(OC)c1 (stereo unspecified),> 100,
CCN(CC)CCCNc1ccc([N+](=O)[O-])c2nc3ccc(OC)cc3c(NCCCN(CC)CC)c12,2.69,
CC1=C(C(=O)NNC(=O)CC#N)CC(C(=O)NNC(=O)CC#N)=C(C)N1,> 100,
CCCCCCNc1nc(NCCCCCC)c2[nH]c(NCCCCCC)nc2n1,7.53,2.66
CN(C)c1nc(=NCc2ccccn2)ss1,6.46,

# Tested on: CCRF-CEM leukemia
# Test: NCI-60 cell line screen, 48 h
SMILES,TGI [µM],GI50 [µM]
COc1cc(OC)c(C2c3cc4c(cc3OC(N3CCOCC3)C2C)OCO4)c(OC)c1 (stereo unspecified),> 100,
CCN(CC)CCCNc1ccc([N+](=O)[O-])c2nc3ccc(OC)cc3c(NCCCN(CC)CC)c12,7.37,
CCCCCCNc1nc(NCCCCCC)c2[nH]c(NCCCCCC)nc2n1,35.6,4.95
CN(C)c1nc(=NCc2ccccn2)ss1,> 10,

# Tested on: PC-3 prostate
# Test: NCI-60 cell line screen, 48 h
SMILES,TGI [µM],GI50 [µM]
COc1cc(OC)c(C2c3cc4c(cc3OC(N3CCOCC3)C2C)OCO4)c(OC)c1 (stereo unspecified),> 100,
CCN(CC)CCCNc1ccc([N+](=O)[O-])c2nc3ccc(OC)cc3c(NCCCN(CC)CC)c12,2.9,
COC(=O)c1cc(C(=O)OC)cc(-c2ccc3c(c2)-c2nc4c(c(-c5ccc(OC)cc5)c2CC3)CCc2ccc(-c3cc(C(=O)OC)cc(C(=O)OC)c3)cc2-4)c1,> 100,
CCCCCCNc1nc(NCCCCCC)c2[nH]c(NCCCCCC)nc2n1,28.9,9.14
COC(=O)c1cc2c3c(cc(NCCN)c2[nH]1)N(C(=O)c1cc2cc(OC)c(OC)c(OC)c2[nH]1)CC3CCl (stereo unspecified),1.01,
CN(C)c1nc(=NCc2ccccn2)ss1,> 10,

# Tested on: COLO 205 colon
# Test: NCI-60 cell line screen, 48 h
SMILES,TGI [µM],GI50 [µM]
COc1cc(OC)c(C2c3cc4c(cc3OC(N3CCOCC3)C2C)OCO4)c(OC)c1 (stereo unspecified),> 100,
CCN(CC)CCCNc1ccc([N+](=O)[O-])c2nc3ccc(OC)cc3c(NCCCN(CC)CC)c12,> 10,
CC1=C(C(=O)NNC(=O)CC#N)CC(C(=O)NNC(=O)CC#N)=C(C)N1,> 100,
COC(=O)c1cc(C(=O)OC)cc(-c2ccc3c(c2)-c2nc4c(c(-c5ccc(OC)cc5)c2CC3)CCc2ccc(-c3cc(C(=O)OC)cc(C(=O)OC)c3)cc2-4)c1,> 100,
CCCCCCNc1nc(NCCCCCC)c2[nH]c(NCCCCCC)nc2n1,2.76,1.32
COC(=O)c1cc2c3c(cc(NCCN)c2[nH]1)N(C(=O)c1cc2cc(OC)c(OC)c(OC)c2[nH]1)CC3CCl (stereo unspecified),0.146,
CN(C)c1nc(=NCc2ccccn2)ss1,> 10,

# Tested on: HL-60(TB) leukemia
# Test: NCI-60 cell line screen, 48 h
SMILES,TGI [µM],GI50 [µM]
CCN(CC)CCCNc1ccc([N+](=O)[O-])c2nc3ccc(OC)cc3c(NCCCN(CC)CC)c12,1.04,
CC1=C(C(=O)NNC(=O)CC#N)CC(C(=O)NNC(=O)CC#N)=C(C)N1,> 100,
CCCCCCNc1nc(NCCCCCC)c2[nH]c(NCCCCCC)nc2n1,4.22,1.58
CN(C)c1nc(=NCc2ccccn2)ss1,4.95,

# Tested on: T-47D breast
# Test: NCI-60 cell line screen, 48 h
SMILES,TGI [µM],GI50 [µM]
COc1cc(OC)c(C2c3cc4c(cc3OC(N3CCOCC3)C2C)OCO4)c(OC)c1 (stereo unspecified),> 100,
CCN(CC)CCCNc1ccc([N+](=O)[O-])c2nc3ccc(OC)cc3c(NCCCN(CC)CC)c12,> 10,
CC1=C(C(=O)NNC(=O)CC#N)CC(C(=O)NNC(=O)CC#N)=C(C)N1,> 100,
COC(=O)c1cc(C(=O)OC)cc(-c2ccc3c(c2)-c2nc4c(c(-c5ccc(OC)cc5)c2CC3)CCc2ccc(-c3cc(C(=O)OC)cc(C(=O)OC)c3)cc2-4)c1,> 100,
CCCCCCNc1nc(NCCCCCC)c2[nH]c(NCCCCCC)nc2n1,17.3,2.42
CN(C)c1nc(=NCc2ccccn2)ss1,> 10,

# Tested on: SK-OV-3 ovarian
# Test: NCI-60 cell line screen, 48 h
SMILES,TGI [µM],GI50 [µM]
CCN(CC)CCCNc1ccc([N+](=O)[O-])c2nc3ccc(OC)cc3c(NCCCN(CC)CC)c12,> 10,
CC1=C(C(=O)NNC(=O)CC#N)CC(C(=O)NNC(=O)CC#N)=C(C)N1,> 100,
COC(=O)c1cc(C(=O)OC)cc(-c2ccc3c(c2)-c2nc4c(c(-c5ccc(OC)cc5)c2CC3)CCc2ccc(-c3cc(C(=O)OC)cc(C(=O)OC)c3)cc2-4)c1,> 100,
CCCCCCNc1nc(NCCCCCC)c2[nH]c(NCCCCCC)nc2n1,> 74.1,24.8
COC(=O)c1cc2c3c(cc(NCCN)c2[nH]1)N(C(=O)c1cc2cc(OC)c(OC)c(OC)c2[nH]1)CC3CCl (stereo unspecified),5.12,
CN(C)c1nc(=NCc2ccccn2)ss1,> 10,

# Tested on: NCI-H522 lung
# Test: NCI-60 cell line screen, 48 h
SMILES,TGI [µM],GI50 [µM]
COc1cc(OC)c(C2c3cc4c(cc3OC(N3CCOCC3)C2C)OCO4)c(OC)c1 (stereo unspecified),> 100,
COC(=O)c1cc(C(=O)OC)cc(-c2ccc3c(c2)-c2nc4c(c(-c5ccc(OC)cc5)c2CC3)CCc2ccc(-c3cc(C(=O)OC)cc(C(=O)OC)c3)cc2-4)c1,> 100,
CCCCCCNc1nc(NCCCCCC)c2[nH]c(NCCCCCC)nc2n1,7.68,2.14

# Tested on: NCI-H460 lung
# Test: NCI-60 cell line screen, 48 h
SMILES,TGI [µM],GI50 [µM]
COc1cc(OC)c(C2c3cc4c(cc3OC(N3CCOCC3)C2C)OCO4)c(OC)c1 (stereo unspecified),> 100,
CC1=C(C(=O)NNC(=O)CC#N)CC(C(=O)NNC(=O)CC#N)=C(C)N1,> 100,
COC(=O)c1cc(C(=O)OC)cc(-c2ccc3c(c2)-c2nc4c(c(-c5ccc(OC)cc5)c2CC3)CCc2ccc(-c3cc(C(=O)OC)cc(C(=O)OC)c3)cc2-4)c1,> 100,
CCCCCCNc1nc(NCCCCCC)c2[nH]c(NCCCCCC)nc2n1,19.5,5.37
